According to PubChem BioAssay (NCI):
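Growth conditions: 96-well plates. Treatment: test compound, 48 hours, 5 concentrations. Analysis: linear interpolation between bracketing concentrations; unreached endpoints set to highest concentration. At the GI50, growth is halved. TGI: concentration producing complete growth inhibition.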

What was measured:
Assay in all cases: NCI tumour cell line growth inhibition, 48 h
A498 renal = tested on: A498 renal
SK-OV-3 ovarian = tested on: SK-OV-3 ovarian
OVCAR-5 ovarian = tested on: OVCAR-5 ovarian
RPMI-8226 leukemia = tested on: RPMI-8226 leukemia
SK-MEL-2 melanoma = tested on: SK-MEL-2 melanoma
DU-145 prostate = tested on: DU-145 prostate
NCI-H460 lung = tested on: NCI-H460 lung
SNB-19 CNS = tested on: SNB-19 CNS
OVCAR-8 ovarian = tested on: OVCAR-8 ovarian
SF-268 CNS = tested on: SF-268 CNS

SMILES	GI50 (A498 renal) [nM]	TGI (A498 renal) [nM]	GI50 (SK-OV-3 ovarian) [nM]	TGI (SK-OV-3 ovarian) [nM]	GI50 (OVCAR-5 ovarian) [nM]	TGI (OVCAR-5 ovarian) [nM]	GI50 (RPMI-8226 leukemia) [nM]	TGI (RPMI-8226 leukemia) [nM]	GI50 (SK-MEL-2 melanoma) [nM]	TGI (SK-MEL-2 melanoma) [nM]	GI50 (DU-145 prostate) [nM]	TGI (DU-145 prostate) [nM]	GI50 (NCI-H460 lung) [nM]	TGI (NCI-H460 lung) [nM]	GI50 (SNB-19 CNS) [nM]	TGI (SNB-19 CNS) [nM]	GI50 (OVCAR-8 ovarian) [nM]	TGI (OVCAR-8 ovarian) [nM]	GI50 (SF-268 CNS) [nM]	TGI (SF-268 CNS) [nM]
O=C(Nc1ccc(Br)cc1F)c1cc(Cl)ccc1O	160	604	441	2200	3670	> 100000	342	1880	372	2000	899	> 100000	487	> 66500	418	> 100000	1060	12800	676	9960
NC(N)=NCCCC(=O)O	–	> 100000	–	> 100000	–	> 100000	–	> 100000	–	> 100000	–	> 100000	–	> 100000	–	> 100000	–	> 100000	–	> 100000
